Starred links: 1 amine or outer side, 2 acyl side, 3 side chain; linkers in the order of their positions; H or OH if unused. Positions of bridges follow the written chain, without caps; N, C: chain ends. Non-standard residues stand in square brackets, D forms with d. Residues, ends and D or L forms follow the SMILES beside them. *: point of attachment. hPhe(3,5-F2-4-CF3) = N[C@@H](CCc1cc(F)c(C(F)(F)F)c(F)c1)C(=O)O; hPhe(3-Cl-4-CF3) = N[C@@H](CCc1ccc(C(F)(F)F)c(Cl)c1)C(=O)O; hPhe(3-F,4-CF3) = N[C@@H](CCc1ccc(C(F)(F)F)c(F)c1)C(=O)O; X28 = CCCCOc1cc(CC[C@H](N[*:1])C(=O)[*:2])cc(Cl)c1Cl; NMePhe(4-Cl) = CN[C@@H](Cc1ccc(Cl)cc1)C(=O)O; NMePhe(4-Me) = CN[C@@H](Cc1ccc(C)cc1)C(=O)O; NMedβ3hAla = C[C@H](CC(=O)[*:2])N(C)[*:1]; NMeAla(cPent) = CN[C@@H](CC1CCCC1)C(=O)O; NMeGly(cPent) = CN[C@H](C(=O)O)C1CCCC1; dαMeGly(allyl) = C=CC[C@@](C)(N)C(=O)O; NMeGly(cBu) = CN[C@H](C(=O)O)C1CCC1; NMeCha = CN[C@@H](CC1CCCCC1)C(=O)O; NEtLeu = CCN[C@@H](CC(C)C)C(=O)O; NMeChg = CN[C@H](C(=O)O)C1CCCCC1; NMeT = CN[C@H](C(=O)O)[C@@H](C)O; NMeD = CN[C@@H](CC(=O)O)C(=O)O; NMeL = CN[C@@H](CC(C)C)C(=O)O; NMeNva = CCC[C@H](NC)C(=O)O; NMeV = CN[C@H](C(=O)O)C(C)C; d(β3hA) = C[C@@H](N)CC(=O)O; NMeAbu = CC[C@H](NC)C(=O)O; NMeS = CN[C@@H](CO)C(=O)O; Morpholide = C1CN(*)CCO1; NMeA = CN[C@@H](C)C(=O)O; Piperidide = C1CCN(*)CC1; Pyrrolidide = C1CCN(*)C1; Ac5c = NC1(C(=O)O)CCCC1; Aze = O=C(O)[C@@H]1CCN1; Ac4c = NC1(C(=O)O)CCC1; Cyclobutyl = C1CC(*)C1; Cyclopropyl = C1CC1*; Sar = CNCC(=O)O; Propyl = CCC*
Legend:
[1] = system: Human pancreatic cancer cell line AsPC-1; experiment: Measurement of AsPC-1 cell growth inhibition (AsPC-1 CGI); type: cell-based; conditions: 96 h
In short: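 AsPC-1 cells in 15% FBS RPMI-1640 were exposed to test compound for 96 hours at 37° C, with CellTiter-Glo as endpoint.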

[2] = biological target: T1, Kras and SOS1 (biotin-tagged human Kras loaded with GDP, His-tagged human SOS1) (Homo sapiens, UniProt P01116, G12D); experiment: Protein-protein interaction inhibition between Kras and SOS1 (KrasGl2D-SOS PPI) using AlphaScreen; type: binding; conditions: AlphaScreen; biotin-tagged human Kras loaded with GDP, His-tagged human SOS1; read-out: KRAS G12D-SOS PPI IC50
T1 construct: made in house; host or cells: E. coli (stated for Kras only)
T1 sequence (P01116 1-188 isoform P01116-2 G12D): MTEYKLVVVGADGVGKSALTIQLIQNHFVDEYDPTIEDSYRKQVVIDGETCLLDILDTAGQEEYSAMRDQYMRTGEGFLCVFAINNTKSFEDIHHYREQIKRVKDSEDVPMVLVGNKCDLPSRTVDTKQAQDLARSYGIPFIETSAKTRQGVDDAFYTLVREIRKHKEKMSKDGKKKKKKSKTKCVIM
In short: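 Read-out is acceptor-bead light at 520-620 nm, arising when 680 nm-irradiated nickel donor beads pass singlet oxygen to streptavidin acceptors. The bead pair links His-tagged SOS1 with biotin-tagged, GDP-bound Kras from E. coli.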

Structure (SMILES) | IC50 [1] [µM] | IC50 [2] [µM]
CCCOC[C@H]1C(=O)N(C)CC(=O)N[C@@H](CCc2ccc(C(F)(F)F)c(Cl)c2)C(=O)N2CCC[C@H]2C(=O)NC2(CCCC2)C(=O)N(C)[C@@H](C2CCCCC2)C(=O)N(C)[C@H](C(=O)N2CCCC2)CC(=O)N(C)[C@@H](CC(C)C)C(=O)N[C@@H]([C@@H](C)CC)C(=O)N(C)CC(=O)N(C)CC(=O)N1C [Compound 2006] ([NMeL]I[Sar][Sar][NMeS](Propyl)[Sar][hPhe(3-Cl-4-CF3)]P[Ac5c][NMeChg][NMeD]-Pyrrolidide; lactam N-11) | 0.05 to 0.1 | 0.00062
C=CC[C@@]1(C)NC(=O)[C@@H]2CCCN2C(=O)[C@H](CCc2ccc(C(F)(F)F)c(Cl)c2)NC(=O)CN(C)C(=O)[C@H](CC2CCCCC2)N(C)C(=O)CN(C)C(=O)CN(C)C(=O)[C@H]([C@@H](C)CC)NC(=O)[C@H](CC(C)C)N(C)C(=O)C[C@@H](C)N(C)C(=O)[C@H](C(C)C)N(C)C1=O [Compound 1038] (cyclo(I[Sar][Sar][NMeCha][Sar][hPhe(3-Cl-4-CF3)]P[dαMeGly(allyl)][NMeV][NMedβ3hAla][NMeL])) | 0.1 to 0.5 | 0.018
CC[C@H](C)[C@@H]1NC(=O)[C@H](C2CCC2)N(C)C(=O)C[C@@H](C(=O)N2CCCC2)N(C)C(=O)[C@H](C2CCCCC2)N(C)C(=O)C2(CCCC2)NC(=O)[C@@H]2CCCN2C(=O)[C@H](CCc2cc(F)c(C(F)(F)F)c(F)c2)NC(=O)CN(C)C(=O)[C@H](CC2CCCCC2)N(C)C(=O)CN(C)C(=O)CN(C)C1=O [Compound 1275] ([NMeGly(cBu)]I[Sar][Sar][NMeCha][Sar][hPhe(3,5-F2-4-CF3)]P[Ac5c][NMeChg][NMeD]-Pyrrolidide; lactam N-11) | 0.02 to 0.05 | 0.00065
CC[C@H](C)[C@@H]1NC(=O)[C@H](CC)N(C)C(=O)C[C@@H](C(=O)N2CCOCC2)N(C)C(=O)[C@H](C2CCCCC2)N(C)C(=O)C2(CCCC2)NC(=O)[C@@H]2CCCN2C(=O)[C@H](CCc2ccc(C(F)(F)F)c(Cl)c2)NC(=O)CN(C)C(=O)[C@H](CC2CCCC2)N(C)C(=O)CN(C)C(=O)CN(C)C1=O [Compound 1999] ([NMeAbu]I[Sar][Sar][NMeAla(cPent)][Sar][hPhe(3-Cl-4-CF3)]P[Ac5c][NMeChg][NMeD]-Morpholide; lactam N-11) | 0.1 to 0.5 | 0.00082
CC[C@H](C)[C@@H]1NC(=O)[C@H](CC(C)C)N(CC)C(=O)C[C@@H](C(=O)N(C)C)N(C)C(=O)[C@H](C2CCCC2)N(C)C(=O)C2(CCCC2)NC(=O)[C@@H]2CCCN2C(=O)[C@H](CCc2ccc(C(F)(F)F)c(F)c2)NC(=O)CN(C)C(=O)[C@H](CC2CCCCC2)N(C)C(=O)[C@@H]2CCN2C(=O)[C@H](C)NC1=O [Compound 1252] ([NEtLeu]IA[Aze][NMeCha][Sar][hPhe(3-F,4-CF3)]P[Ac5c][NMeGly(cPent)][NMeD]-NMe2; lactam N-11) | 0.1 to 0.5 | 0.0025
CCCCOc1cc(CC[C@@H]2NC(=O)CN(C)C(=O)[C@H](CC3CCCCC3)N(C)C(=O)CN(C)C(=O)CN(C)C(=O)[C@H]([C@@H](C)CC)NC(=O)[C@H](C)N(C)C(=O)C[C@@H](C(=O)N3CCCCC3)N(C)C(=O)[C@H](C3CCCCC3)N(C)C(=O)C3(CCCC3)NC(=O)[C@@H]3CCCN3C2=O)cc(Cl)c1Cl [Compound 2066] ([NMeA]I[Sar][Sar][NMeCha][Sar][X28]P[Ac5c][NMeChg][NMeD]-Piperidide; lactam N-11) | > 0.5 | 0.063
CC[C@H](C)[C@@H]1NC(=O)[C@H](COC2CC2)N(C)C(=O)C[C@@H](C(=O)N2CCCCC2)N(C)C(=O)[C@H](C2CCCCC2)N(C)C(=O)C2(CCCC2)NC(=O)[C@@H]2CCCN2C(=O)[C@H](CCc2ccc(C(F)(F)F)c(Cl)c2)NC(=O)CN(C)C(=O)[C@H](CC2CCCCC2)N(C)C(=O)CN(C)C(=O)CN(C)C1=O [Compound 1786] ([NMeS](Cyclopropyl)I[Sar][Sar][NMeCha][Sar][hPhe(3-Cl-4-CF3)]P[Ac5c][NMeChg][NMeD]-Piperidide; lactam N-11) | 0.05 to 0.1 | 0.00072
CC[C@H](C)[C@@H]1NC(=O)[C@H]([C@@H](C)OC)N(C)C(=O)C[C@@H](C(=O)N2CCCCC2)N(C)C(=O)[C@H](C2CCCCC2)N(C)C(=O)C2(CCCC2)NC(=O)[C@@H]2CCCN2C(=O)[C@H](CCc2ccc(C(F)(F)F)c(Cl)c2)NC(=O)CN(C)C(=O)[C@H](CC2CCCCC2)N(C)C(=O)CN(C)C(=O)CN(C)C1=O [Compound 820] ([NMeT](Me)I[Sar][Sar][NMeCha][Sar][hPhe(3-Cl-4-CF3)]P[Ac5c][NMeChg][NMeD]-Piperidide; lactam N-11) | 0.05 to 0.1 | 0.00073
CCC[C@H]1C(=O)N[C@@H]([C@@H](C)CC)C(=O)N(C)CC(=O)N(C)CC(=O)N(C)[C@@H](Cc2ccc(C)cc2)C(=O)N(C)CC(=O)N[C@@H](CCc2ccc(C(F)(F)F)c(Cl)c2)C(=O)N2CCC[C@H]2C(=O)NC2(CCCC2)C(=O)N(C)[C@@H](C2CCCCC2)C(=O)N(C)[C@H](C(=O)N2CCOCC2)CC(=O)N1C [Compound 1871] ([NMeNva]I[Sar][Sar][NMePhe(4-Me)][Sar][hPhe(3-Cl-4-CF3)]P[Ac5c][NMeChg][NMeD]-Morpholide; lactam N-11) | 0.02 to 0.05 | 0.00048
CC[C@H](C)[C@@H]1NC(=O)[C@H](C)N(C)C(=O)C[C@@H](C)NC(=O)[C@H](C2CCCC2)N(C)C(=O)C2(CCCC2)NC(=O)[C@@H]2CCCN2C(=O)[C@H](CCc2ccc(C(F)(F)F)c(Cl)c2)NC(=O)CN(C)C(=O)[C@H](Cc2ccc(C)cc2)N(C)C(=O)[C@@H]2CCN2C(=O)CN(C)C1=O [Compound 1462] (cyclo([Ac5c][NMeGly(cPent)][d(β3hA)][NMeA]I[Sar][Aze][NMePhe(4-Me)][Sar][hPhe(3-Cl-4-CF3)]P)) | 0.1 to 0.5 | 0.00079
CC[C@H](C)[C@@H]1NC(=O)[C@H](CC(C)C)N(C)C(=O)C[C@@H](C(=O)N2CCCCC2)N(C)C(=O)[C@H](C(C)C)N(C)C(=O)C2(CCCC2)NC(=O)[C@@H]2CCCN2C(=O)[C@H](CCc2ccc(C(F)(F)F)c(Cl)c2)NC(=O)CN(C)C(=O)[C@H](COC2CCC2)N(C)C(=O)[C@@H]2CCN2C(=O)[C@H](C)N(C)C1=O [Compound 880] ([NMeL]I[NMeA][Aze][NMeS](Cyclobutyl)[Sar][hPhe(3-Cl-4-CF3)]P[Ac5c][NMeV][NMeD]-Piperidide; lactam N-11) | 0.1 to 0.5 | 0.0029
CC[C@H](C)[C@@H]1NC(=O)[C@H](C)N(C)C(=O)C[C@@H](C)NC(=O)[C@H](C2CCCC2)N(C)C(=O)C2(CCC2)NC(=O)[C@@H]2CCCN2C(=O)[C@H](CCc2ccc(C(F)(F)F)c(Cl)c2)NC(=O)CN(C)C(=O)[C@H](Cc2ccc(C)cc2)N(C)C(=O)CN(C)C(=O)CN(C)C1=O [Compound 1466] (cyclo([Ac4c][NMeGly(cPent)][d(β3hA)][NMeA]I[Sar][Sar][NMePhe(4-Me)][Sar][hPhe(3-Cl-4-CF3)]P)) | 0.1 to 0.5 | 0.001
CC[C@H](C)[C@@H]1NC(=O)[C@H](CC(C)C)N(C)C(=O)C[C@@H](C)NC(=O)[C@H](C(C)C)N(C)C(=O)C2(CCCC2)NC(=O)[C@@H]2CCCN2C(=O)[C@H](CCc2ccc(C(F)(F)F)c(Cl)c2)NC(=O)CN(C)C(=O)[C@H](Cc2ccc(Cl)cc2)N(C)C(=O)CN(C)C(=O)CN(C)C1=O [Compound 121] (cyclo([Ac5c][NMeV][d(β3hA)][NMeL]I[Sar][Sar][NMePhe(4-Cl)][Sar][hPhe(3-Cl-4-CF3)]P)) | 0.1 to 0.5 | 0.0054
CC(C)C[C@H]1C(=O)N[C@@H](C(C)C)C(=O)N(C)CC(=O)N(C)CC(=O)N(C)[C@@H](CC2CCCCC2)C(=O)N(C)CC(=O)N[C@@H](CCc2ccc(C(F)(F)F)c(F)c2)C(=O)N2CCC[C@H]2C(=O)NC2(CCCC2)C(=O)N(C)[C@@H](CC(C)C)C(=O)N(C)[C@H](C(=O)N2CCCCC2)CC(=O)N1C [Compound 1458] ([NMeL]V[Sar][Sar][NMeCha][Sar][hPhe(3-F,4-CF3)]P[Ac5c][NMeL][NMeD]-Piperidide; lactam N-11) | 0.1 to 0.5 | 0.0072
